Target: T1, BoCCD4-3 (Bixa orellana, UniProt A0A140CWS5)
T1 construct: gene CCD4-3; complete ORF (1,785 bp amplicon, predicted 30-residue transit peptide kept) in pDEST17, arabinose-induced in lycopene-accumulating E. coli BL21 (pACCRTEIB); cells or crude cell-free extract, not purified
Experiment: cleavage in lycopene-accumulating E. coli and in cell-free extract; HPLC, UHPLC-ESI-QTOF-MS/MS, FTIR
Assay type: biochemical
Details: 1 mM lycopene added 1:1 to extract, 22 °C, up to 5 min; product bixin aldehyde (m/z 349.2), 5,6/5',6' cleavage; crude extract

T1 sequence (A0A140CWS5 entry or part of it): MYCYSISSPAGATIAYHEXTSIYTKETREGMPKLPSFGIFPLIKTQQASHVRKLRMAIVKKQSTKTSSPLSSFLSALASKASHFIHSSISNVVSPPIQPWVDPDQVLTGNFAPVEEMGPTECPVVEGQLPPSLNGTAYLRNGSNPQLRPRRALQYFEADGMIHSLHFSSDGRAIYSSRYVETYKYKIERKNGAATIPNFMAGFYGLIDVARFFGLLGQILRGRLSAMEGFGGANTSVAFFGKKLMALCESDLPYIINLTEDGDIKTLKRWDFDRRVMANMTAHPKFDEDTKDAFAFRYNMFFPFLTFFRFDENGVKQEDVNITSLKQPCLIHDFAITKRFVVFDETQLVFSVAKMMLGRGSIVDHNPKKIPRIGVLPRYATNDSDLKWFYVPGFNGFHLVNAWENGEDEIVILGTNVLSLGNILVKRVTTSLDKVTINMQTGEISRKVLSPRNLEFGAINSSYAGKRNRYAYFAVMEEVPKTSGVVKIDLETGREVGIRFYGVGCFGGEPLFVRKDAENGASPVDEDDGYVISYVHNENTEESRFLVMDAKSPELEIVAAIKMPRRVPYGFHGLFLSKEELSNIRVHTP

CC(C)=CCC/C(C)=C/C=C/C(C)=C/C=C/C(C)=C/C=C/C=C(C)/C=C/C=C(C)/C=C/C=C(\C)CCC=C(C)C [lycopene]
cleavage in lycopene-accumulating E. coli and in cell-free extract; HPLC, UHPLC-: BoCCD4-3 is also able to cleave lycopene into bixin aldehyde, but at lower efficiency

Source: paper PMC6592262, “Isolation and functional characterization of two dioxygenases putatively involved in bixin biosynthesis in annatto (Bixa orellana L.)” (PeerJ, 2019)
